The results in this text go back to US10981932B2, “Macrocyclic indole derivatives” (Bayer Aktiengesellschaft, priority 2016, dated 2021).

Data set [1] deals with MCL-1 (Homo sapiens, UniProt Q07820). As to the kind of experiment: Protein-protein interaction assay MCL-1/Noxa BH3 peptide (MCL-1 assay), TR-FRET. The data set is classed as binding. As to conditions: MBP-MCL-1 / Noxa BH3-derived peptide, median. A digest of the protocol: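 Displacement of the biotinylated Noxa BH3 peptide from MBP-tagged human MCL-1 (1 nM) is detected by time-resolved FRET. Compounds are tested in duplicate across eleven concentrations up to 20 μM, incubated 1 h at 22 °C and overnight at 4 °C, and IC50 is fitted with a four-parameter equation.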
MCL-1, sequence (Q07820 whole entry): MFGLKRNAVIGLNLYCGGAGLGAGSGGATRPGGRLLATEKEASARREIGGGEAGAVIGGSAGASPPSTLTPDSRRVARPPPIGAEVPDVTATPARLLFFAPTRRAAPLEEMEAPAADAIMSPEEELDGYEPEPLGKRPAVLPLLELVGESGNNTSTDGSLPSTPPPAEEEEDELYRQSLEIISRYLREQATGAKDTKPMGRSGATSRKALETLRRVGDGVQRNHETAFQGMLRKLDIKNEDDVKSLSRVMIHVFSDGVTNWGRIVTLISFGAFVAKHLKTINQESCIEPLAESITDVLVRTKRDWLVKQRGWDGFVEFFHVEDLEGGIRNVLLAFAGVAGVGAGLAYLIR

The test system of data set [2] is A2780. The data set is described as follows: Anti-proliferative effect (CellTiter-Glo, 72 h), A2780. It counts as cell-based. As to conditions: A2780 cells, median, read-out: IC50 antiproliferation assay A2780 [M] (median). A digest of the protocol: (§1)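 Viable cells quantified with CellTiter-Glo after 72 h at 37 °C; rim wells excluded; day 0 plate as baseline.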
(Cellular ATP, detected with luciferase, serves as a proxy for viable cell number.)

Data set [3] concerns SUDHL10. As to the kind of experiment: Induction of caspase-3/7 activity (Caspase-Glo 3/7), SUDHL10. It counts as cell-based. As to conditions: caspase-3/7 induction, SUDHL10 cells, 3 h treatment, median. A digest of the protocol:
(§2)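 Caspase-Glo 3/7 luminescence, 3 h compound exposure, 37 °C, humidified. Minus medium-only blank. EC50 fit: C0=1, plateau = reference max induction.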

For data set [4], the system named is SUDHL5. The data set is described as follows: Induction of cytotoxicity (CellTiter-Glo, 5 h), SUDHL5.
Data set [5] relates to SUDHL10. As to the kind of experiment: Anti-proliferative effect (CellTiter-Glo, 72 h), SUDHL10. It counts as cell-based. The conditions noted are these: SUDHL10 cells, antiproliferation, median, read-out: Antiproli SUDHL10 [M] (median). A digest of the protocol:
as §1

Data set [6] deals with SUDHL5. As to the kind of experiment: Induction of caspase-3/7 activity (Caspase-Glo 3/7), SUDHL5. As to conditions: caspase-3/7 induction, SUDHL5 cells, 3 h treatment, median. It counts as cell-based. A digest of the protocol: as §2
Data set [7] deals with SUDHL10. As to the kind of experiment: Induction of cytotoxicity (CellTiter-Glo, 5 h), SUDHL10.
Data set [8] has as its system SUDHL5. As to the kind of experiment: Anti-proliferative effect (CellTiter-Glo, 72 h), SUDHL5. The data set is classed as cell-based. The conditions noted are these: SUDHL5 cells, antiproliferation, median, read-out: Antiproli SUDHL5 [M] (median). A digest of the protocol: as §1
[9] abbreviates: read-out: Cytotox SUDHL5 [M] (median), SUDHL5 cells, cytotoxicity induction, CellTiter-Glo, 5 h incubation, median.
Setting [10] is: read-out: Cytotox SUDHL10 [M] (median), SUDHL10 cells, cytotoxicity induction, CellTiter-Glo, 5 h incubation, median.
[11] abbreviates: Homo sapiens, SU-DHL-5, 5 h, read-out: Cytotox SUDHL5 [M] (median), SUDHL5 cells, cytotoxicity induction, CellTiter-Glo, 5 h, median.
Where [12] appears, read: Homo sapiens, SU-DHL10, 72 h, 72 h.
Where [13] appears, read: Homo sapiens, SU-DHL10, 5 h, read-out: Cytotox SUDHL10 [M] (median), SUDHL10 cells, cytotoxicity induction, CellTiter-Glo, 5 h, median.
Where [14] appears, read: Homo sapiens, SU-DHL-5, 72 h, 72 h.

Counter-ions that a name gives are not always drawn. Like-named read-outs stand apart in the source and are kept apart here.

With `Cn1nc2c(c1C(F)(F)F)-c1cccc3c(CCCOc4cccc5ccccc45)c(C(=O)O)n(c13)CCCCOC2` (single isomer, unassigned; enantiomer 1) [Example 194, 2-methyl-7-[3-(naphthalen-1-yloxy)propyl]-3-(trifluoromethyl)-2,10,11,12,13,15-hexahydropyrazolo[4′,3′:9,10][1,6]oxazacycloundecino[8,7,6-hi]indole-8-carboxylic Acid (Enantiomer 1)], the IC50 in data set [1] is 0.00735 µM; in data set [2] (Homo sapiens, A2780, 72 h) it was 1.82e-05 M; in data set [4] (setting [9]), 5.46e-06 M; in data set [5] (72 h incubation), 6.28e-06 M; in data set [7] (setting [10]), 1.63e-05 M; in data set [8] (Homo sapiens, SU-DHL-5, 72 h, 72 h incubation), 7.95e-06 M. For the same molecule, the EC50 (in general, the concentration giving half of the maximal effect) amounted to 15.1 µM in data set [3] and 5.09 µM in data set [6].
Turning to `CCc1c2c(nn1CCN1CCOCC1)COCCCCn1c(C(=O)O)c(CCCOc3cccc4ccccc34)c3cccc-2c31` (single isomer, unassigned; enantiomer 1) [Example 202, 3-ethyl-2-[2-(morpholin-4-yl)ethyl]-7-[3-(naphthalen-1-yloxy)propyl]-2,10,11,12,13,15-hexahydropyrazolo[4′,3′:9,10][1,6]oxazacycloundecino[8,7,6,6-hi]indole-8-carboxylic Acid (Enantiomer 1)], the IC50 was 0.0462 µM in data set [1]; 3.17e-05 M in data set [2] (Homo sapiens, A2780, 72 h); above 3.3e-05 M in data set [4] (setting [9]); 1.74e-05 M in data set [5] (72 h incubation); 2.87e-05 M in data set [7] (setting [10]); 2.52e-05 M in data set [8] (72 h incubation). The EC50 is above 33 µM in data set [3] and 30.2 µM in data set [6].
On to `Cn1nc(COc2ccc(NS(C)(=O)=O)cc2)c2c1COCCCCn1c(C(=O)O)c(CCCOc3cccc4ccccc34)c3cccc-2c31` (single isomer, unassigned; enantiomer 1) [Example 322, 1-methyl-3-({4-[((methylsulfonyl)amino]phenoxy}methyl)-7-[3-(naphthalen-1-yloxy)propyl]-1,10,11,12,13,15-hexahydropyrazolo[4′,3′:9,10][1,6]oxazacycloundecino[8,7,6-hi]indole-8-carboxylic Acid-N-ethylethanamine Salt (Enantiomer 1)], for which the IC50 in data set [1] was 1.08 µM; in data set [2] (Homo sapiens, A2780, 72 h), above 3.3e-05 M; in data set [4] (setting [11]), above 3.3e-05 M; in data set [5] (setting [12]) it was 1.9e-05 M; in data set [7] (setting [13]), above 3.3e-05 M; in data set [8] (setting [14]), 2.46e-05 M. The EC50 is above 33 µM in data set [3] (Homo sapiens, SU-DHL10, 3 h) and above 33 µM in data set [6] (Homo sapiens, SU-DHL-5, 3 h).
For the molecule `Cn1nc(CN2CCCCC2=O)c2c1COCCCCn1c(C(=O)O)c(CCCOc3cccc4ccccc34)c3cccc-2c31` (single isomer, unassigned; enantiomer 1) [Example 326, 1-methyl-7-[3-(naphthalen-1-yloxy)propyl]-3-[(2-oxopiperidin-1-yl)methyl]-1,10,11,12,13,15-hexahydropyrazolo[4′,3′:9,10][1,6]oxazacycloundecino[8,7,6-hi]indole-carboxylic Acid (Enantiomer 1)], the IC50 was 0.515 µM in data set [1]; above 3.3e-05 M in data set [2] (Homo sapiens, A2780, 72 h); above 3.3e-05 M in data set [4] (setting [11]); 1.14e-05 M in data set [5] (setting [12]); above 3.3e-05 M in data set [7] (setting [13]); 3.18e-05 M in data set [8] (setting [14]). For the same molecule, the EC50 was above 33 µM in data set [3] (Homo sapiens, SU-DHL10, 3 h) and above 33 µM in data set [6] (Homo sapiens, SU-DHL-5, 3 h).
In the case of `Cn1nc(CN2CCCC2=O)c2c1COCCCCn1c(C(=O)O)c(CCCOc3cccc4ccccc34)c3cccc-2c31` (single isomer, unassigned; enantiomer 1) [Example 330, 1-methyl-7-[3-(naphthalen-1-yloxy)propyl]-3-[(2-oxopyrrolidin-1-yl)methyl]-1,10,11,12,13,15-hexahydropyrazolo[4′,3′:9,10][1,6]oxazacycloundecino[8,7,6-hi]indole-8-carboxylic Acid (Enantiomer 1)], the IC50 in data set [1] is 0.153 µM; in data set [2], above 3.3e-05 M; in data set [4] (read-out: Cytotox SUDHL5 [M] (median), SUDHL5 cells, cytotoxicity induction, CellTiter-Glo, 5 h, median), above 3.3e-05 M; in data set [5] (72 h), 2.49e-05 M; in data set [7] (read-out: Cytotox SUDHL10 [M] (median), SUDHL10 cells, cytotoxicity induction, CellTiter-Glo, 5 h, median) it was above 3.3e-05 M; in data set [8] (72 h) it was above 3.3e-05 M. Further, the EC50 in data set [3] and in data set [6] was above 33 µM throughout.
For the molecule `Cn1nc(CN2CCCCC2)c2c1COCCCCn1c(C(=O)O)c(CCCOc3cccc4ccccc34)c3cccc-2c31` (single isomer, unassigned; enantiomer 1) [Example 333, 1-methyl-7-[3-(naphthalen-1-yloxy)propyl]-3-(piperidin-1-ylmethyl)-1,10,11,12,13,15-hexahydropyrazolo[4′,3′:9,10][1,6]oxazacycloundecino[8,7,6-hi]indole-8-carboxylic Acid (Enantiomer 1)], the IC50 was 1.04 µM in data set [1]; 1.67e-05 M in data set [2] (Homo sapiens, A2780, 72 h); 2.89e-05 M in data set [4] (setting [11]); 8.22e-06 M in data set [5] (setting [12]); above 3.3e-05 M in data set [7] (setting [13]); 8.44e-06 M in data set [8] (setting [14]). The EC50 in data set [3] (Homo sapiens, SU-DHL10, 3 h) was above 33 µM; in data set [6] (Homo sapiens, SU-DHL-5, 3 h), 17.3 µM.
Take `Cn1nc(CN2CCCC2)c2c1COCCCCn1c(C(=O)O)c(CCCOc3cccc4ccccc34)c3cccc-2c31` (single isomer, unassigned; enantiomer 1) [Example 336, 1-methyl-7-[3-(naphthalen-1-yloxy)propyl]-3-(pyrrolidin-1-ylmethyl)-1,10,11,12,13,15-hexahydropyrazolo[4′,3′:9,10][1,6]oxazacycloundecino[8,7,6-hi]indole-8-carboxylic Acid (Enantiomer 1)]: the IC50 in data set [1] is 0.132 µM; in data set [2] (Homo sapiens, A2780, 72 h), above 3.3e-05 M; in data set [4] (setting [11]), above 3.3e-05 M; in data set [5] (setting [12]) it was above 3.3e-05 M; in data set [7] (setting [13]) it was above 3.3e-05 M; in data set [8] (setting [14]), above 3.3e-05 M. Also, the EC50 in data set [3] (Homo sapiens, SU-DHL10, 3 h) was above 33 µM; in data set [6] (Homo sapiens, SU-DHL-5, 3 h), above 33 µM.
On to `CC(=O)NCc1nn(C)c2c1-c1cccc3c(CCCOc4cccc5ccccc45)c(C(=O)O)n(c13)CCCCOC2` (single isomer, unassigned; enantiomer 1) [Example 340, 3-[(acetylamino)methyl]-1-methyl-7-[3-(naphthalen-1-yloxy)propyl]-1,10,11,12,13,15-hexahydropyrazolo[4′3′:9,10][1,6]oxazacycloundecino[8,7,6-hi]indole-carboxylic Acid (Enantiomer 1)], for which the IC50 is 0.0219 µM in data set [1]; above 3.3e-05 M in data set [2] (Homo sapiens, A2780, 72 h); 1.56e-05 M in data set [4] (setting [11]); above 3.3e-05 M in data set [5] (setting [12]); above 3.3e-05 M in data set [7] (setting [13]); 4.71e-06 M in data set [8] (setting [14]). Moreover, the EC50 is above 33 µM in data set [3] (Homo sapiens, SU-DHL10, 3 h) and 21.1 µM in data set [6] (Homo sapiens, SU-DHL-5, 3 h).
Turning to `Cn1nc(COC(=O)NCC(F)(F)F)c2c1COCCCCn1c(C(=O)O)c(CCCOc3cccc4ccccc34)c3cccc-2c31` (single isomer, unassigned; enantiomer 1) [Example 343, 1-methyl-7-[3-(naphthalen-1-yloxy)propyl]-3-({[(2,2,2-trifluoroethyl)carbamoyl]oxy}methyl)-1,10,11,12,13,15-hexahydropyrazolo[4′,3′:9,10][1,6]oxazacycloundecino[8,7,6-hi]indole-8-carboxylic Acid (Enantiomer 1)], the IC50 is 0.325 µM in data set [1]; 1.9e-05 M in data set [2] (Homo sapiens, A2780, 72 h); above 3.3e-05 M in data set [4] (setting [11]); 1.11e-06 M in data set [5] (setting [12]); above 3.3e-05 M in data set [7] (setting [13]); 1.92e-06 M in data set [8] (setting [14]). For the same molecule, the concentration giving a half-maximal response (EC50) in data set [3] (Homo sapiens, SU-DHL10, 3 h) is above 33 µM; in data set [6] (Homo sapiens, SU-DHL-5, 3 h), 29.7 µM.
